Here are results for 37 compounds from ChEMBL document CHEMBL2150873, “Identification of imidazo-pyrrolopyridines as novel and potent JAK1 inhibitors” (J Med Chem, 2012).

The structures appear in SMILES notation.

One data set in a line: in vitro. The conditions noted are these: human, liver microsomes, t1/2. In general terms: Liver microsomes are a subcellular fraction often used to study metabolism.
Data set [1] in a line: Lipophilicity, log D of the compound after 1 hr by LC/MS/MS analysis at pH 7.2. The data set is classed as physicochemical. As to conditions: buffer.
Data set [2] relates to Rattus norvegicus. Kind of data set: Dose normalized Cmax in Sprague-Dawley rat at 5 mg/kg, po. Type of data set: ADME, organism-based. On the set-up: dose 5 mg/kg, route oral. The conditions noted are these: in vivo.
Data set [3] is described as follows: Dose normalized clearance in Sprague-Dawley rat at 1 mg/kg, iv. Type of data set: ADME, organism-based. On the set-up: dose 1 mg/kg, route intravenous. The conditions noted are these: in vivo, read-out: Dose normalized clearance.
The nature of data set [4]: Half life in Sprague-Dawley rat hepatocytes at 1 uM by LC/MS/MS analysis. The data set is classed as ADME, cell-based, Liver, Hepatocyte.
A short description of data set [5]: Dose normalized oral bioavailability in Sprague-Dawley rat at 5 mg/kg. Type of data set: ADME, organism-based. The conditions noted are these: in vivo, read-out: F/dose.
Data set [6] concerns Rattus norvegicus. The data set is described as follows: Dose normalized AUC in Sprague-Dawley rat at 5 mg/kg, po. Type of data set: ADME, organism-based. On the set-up: dose 5 mg/kg, route oral. The conditions noted are these: in vivo.
A short description of data set [7]: Apparent permeability from apical to basal side of MDCK cells at 10 uM. The data set is classed as ADME, cell-based, Canis lupus familiaris. The conditions noted are these: dog.
Another data set has as its system Liver microsomes. As to conditions: human.
Data set [8] is described as follows: Dose normalized volume of distribution at steady state in Sprague-Dawley rat at 1 mg/kg, iv and 5 mg/kg, po. Type of data set: ADME, organism-based. The conditions noted are these: in vivo, read-out: Vdss/dose.

Turning to `COC(=O)N[C@H]1CC[C@H](n2cnc3cnc4[nH]ccc4c32)CC1`, the half-life (usually the time needed for the level to fall by half in the phase considered) in “in vitro” is greater than 10 h. Further, the logD – broadly, lipophilicity at a set pH, counting ionised and neutral species – at 1 h in [1] amounted to 1.9.
Turning to `CC(C)(C)OC(=O)N[C@@H]1CC[C@@H](n2cnc3cnc4[nH]ccc4c32)C1`, in the data set on Rattus norvegicus [2], the Cmax/dose came to 1.1 µM. Moreover, in data set [3], the clearance (as a rule, a measure of how efficiently the substance is removed, as volume per time) was 8.4 L/h/kg. Also, the half-life at 1 µM in data set [4] was 2.2 h. In addition, the bioavailability in data set [5] was 73%. The same compound yielded an AUC/dose with Rattus norvegicus [6] of 1.3 µM·h. Also, the Papp A→B – broadly, the apparent permeability from the apical to the basolateral side of a cell layer – at 10 µM in data set [7] was determined as 112 nm/s. This compound came in with a logD at 1 h in data set [1] of 2.99. The compound further returned a t1/2 in the data set with Liver microsomes of 5.6 h. Also, the Vd in data set [8] turned out to be 2.53 L/kg.
In the case of `N#CCC(=O)N1CCC[C@@H](n2cnc3cnc4[nH]ccc4c32)C1`, the Cmax/dose in the data set with Rattus norvegicus [2] was determined as 0.05 µM. Moreover, the clearance in [3] came to 5.1 L/h/kg. This compound also showed a half-life in the data set “in vitro” of 1.4 h. In [4], this compound yielded a half-life at 1 µM greater than 10 h. Also, the bioavailability in [5] came out at 5%. Further, the AUC/dose in the data set on Rattus norvegicus [6] turned out to be 0.3 µM·h. In addition, the Papp A→B at 10 µM in data set [7] is 3 nm/s. The logD at 1 h in data set [1] came out at 0.39. Further, the Vd in data set [8] came out at 1.87 L/kg.
`c1ccc(CN2CCC(n3cnc4cnc5[nH]ccc5c43)CC2)cc1` displayed a Cmax/dose in the data set on Rattus norvegicus [2] of 0.04 µM. The clearance in data set [3] amounted to 10.2 L/h/kg. The half-life in the data set “in vitro” was 0.8 h. The compound also showed a half-life at 1 µM in [4] of 0.5 h. Moreover, in data set [5], the bioavailability is less than 1%. Moreover, in data set [7], the Papp A→B at 10 µM was 323 nm/s. The compound further had a logD at 1 h in [1] of 2.9. Moreover, the Vd in data set [8] worked out at 6.39 L/kg.
In turn, `c1ncc(CN2CCC(n3cnc4cnc5[nH]ccc5c43)CC2)cn1` gave a half-life in “in vitro” of 4 h.
Still for that read-out and setting: the value for `N#CCC(=O)N1CCC(n2cnc3cnc4[nH]ccc4c32)CC1` was 2 h; that for `O=C(c1ccccc1)N1CCC(n2cnc3cnc4[nH]ccc4c32)CC1` was 1.4 h.
In the case of `CC(C)CC(=O)N1CCC(n2cnc3cnc4[nH]ccc4c32)CC1`, in the data set “in vitro”, the half-life was 0.5 h.
Still for that read-out and setting: the value for `O=S(=O)(c1ccccc1)N1CCC(n2cnc3cnc4[nH]ccc4c32)CC1` was 0.7 h.
Consider `CS(=O)(=O)N1CCC(n2cnc3cnc4[nH]ccc4c32)CC1`, for which the Cmax/dose in the data set with Rattus norvegicus [2] amounted to 2.9 µM. The clearance in data set [3] was determined as 2.7 L/h/kg. Besides, in “in vitro”, the half-life is 2.2 h. The same compound gave a half-life at 1 µM in data set [4] greater than 10 h. Further, the bioavailability in [5] worked out at 36%. The AUC/dose in the data set with Rattus norvegicus [6] stood at 2.3 µM·h. Further, the Papp A→B at 10 µM in data set [7] was 12 nm/s. In data set [1], this compound displayed a logD at 1 h of 1.04. Further, the Vd in [8] worked out at 1.46 L/kg.
`CCN1CCC(n2cnc3cnc4[nH]ccc4c32)CC1`: the half-life in the data set “in vitro” is 2.5 h.
Turning to `FC(F)(F)CN1CCC(n2cnc3cnc4[nH]ccc4c32)CC1`, the half-life in “in vitro” is 3.8 h.
Regarding `N#CCCN1CCC(n2cnc3cnc4[nH]ccc4c32)CC1`, the Cmax/dose with Rattus norvegicus [2] worked out at 1.8 µM. Moreover, the clearance in data set [3] worked out at 5.76 L/h/kg. In “in vitro”, this compound gave a half-life of 7.5 h. Also, the half-life at 1 µM in [4] is greater than 10 h. For the same compound, in data set [5], the bioavailability stood at 48%. Besides, the AUC/dose in the data set with Rattus norvegicus [6] is 1.6 µM·h. In addition, the Papp A→B at 10 µM in [7] amounted to 82 nm/s. For the same compound, the logD at 1 h in data set [1] was determined as 1.72. Moreover, the Vd in [8] came to 2.37 L/kg.
Compound `CN(C)CC(=O)N1CCC(n2cnc3cnc4[nH]ccc4c32)CC1` had a half-life in “in vitro” of 1.5 h.
Still for that read-out and setting: as for `CN1CCC[C@@H]1C(=O)N1CCC(n2cnc3cnc4[nH]ccc4c32)CC1`, the figure is 2.8 h; as for `CN1CCC[C@H]1C(=O)N1CCC(n2cnc3cnc4[nH]ccc4c32)CC1`, 4.7 h.
The same measure, in the same setting: the value for `CC(C)N1CCC[C@H]1C(=O)N1CCC(n2cnc3cnc4[nH]ccc4c32)CC1` was 1.3 h.
The compound `CN1CCCC[C@H]1C(=O)N1CCC(n2cnc3cnc4[nH]ccc4c32)CC1` showed a half-life in “in vitro” of 3.5 h.
The same measure, in the same setting: as for `CC1(n2cnc3cnc4[nH]ccc4c32)CCNCC1`, the figure is greater than 10 h; as for `CC1(n2cnc3cnc4[nH]ccc4c32)CCN(Cc2cncnc2)CC1`, 1.6 h.
As for `CC1(n2cnc3cnc4[nH]ccc4c32)CCN(S(C)(=O)=O)CC1`, the Cmax/dose in the data set on Rattus norvegicus [2] was 0.8 µM. Moreover, the clearance in [3] stood at 4.92 L/h/kg. In the data set “in vitro”, this compound gave a half-life greater than 10 h. In data set [4], this compound showed a half-life at 1 µM greater than 10 h. Also, the bioavailability in [5] came out at 74%. In the data set on Rattus norvegicus [6], this compound showed an AUC/dose of 2.3 µM·h. Besides, the Papp A→B at 10 µM in data set [7] turned out to be 25 nm/s. In [1], the logD at 1 h stood at 1.14. Besides, the Vd in data set [8] was determined as 2.72 L/kg.
`CC1(n2cnc3cnc4[nH]ccc4c32)CCN(CC(F)(F)F)CC1` gave a half-life in the data set “in vitro” of 1.6 h.
Compound `CC1(n2cnc3cnc4[nH]ccc4c32)CCN(CCC#N)CC1` showed a half-life in the data set “in vitro” of 2.3 h.
In turn, `CC(C)(C)OC(=O)N[C@H]1CC[C@H](n2cnc3cnc4[nH]ccc4c32)CC1` showed a half-life in the data set “in vitro” of 1.5 h. For the same compound, the logD at 1 h in data set [1] is 3.2.
For `N[C@H]1CC[C@H](n2cnc3cnc4[nH]ccc4c32)CC1`, the Cmax/dose in the data set with Rattus norvegicus [2] was determined as 0.02 µM. The clearance in data set [3] worked out at 3.9 L/h/kg. Moreover, in the data set “in vitro”, the half-life is 3.7 h. Also, the half-life at 1 µM in data set [4] was greater than 10 h. Also, the bioavailability in data set [5] is less than 1%. Also, the AUC/dose in the data set with Rattus norvegicus [6] was 0.22 µM·h. Besides, in data set [7], the Papp A→B at 10 µM turned out to be 2 nm/s. The compound further yielded a logD at 1 h in data set [1] of -0.44. The Vd in [8] is 13.9 L/kg.
Turning to `N[C@H]1CC[C@@H](n2cnc3cnc4[nH]ccc4c32)CC1`, the half-life in “in vitro” is 5.5 h.
Still for that read-out and setting: as for `c1cc2c(ncc3ncn([C@H]4CC[C@H](N5CCOCC5)CC4)c32)[nH]1`, the figure is 6.8 h.
On the same count and under the same terms, as for `c1cc2c(ncc3ncn([C@H]4CC[C@@H](N5CCOCC5)CC4)c32)[nH]1`, the figure is 3.7 h; as for `CC(C)C(=O)N[C@H]1CC[C@H](n2cnc3cnc4[nH]ccc4c32)CC1`, 2.7 h; as for `c1cc2c(ncc3ncn([C@H]4CC[C@H](NCC5CC5)CC4)c32)[nH]1`, 4.7 h.
For the compound `N#CCCN[C@H]1CC[C@H](n2cnc3cnc4[nH]ccc4c32)CC1`, the Cmax/dose in the data set on Rattus norvegicus [2] amounted to 0.6 µM. For the same compound, in [3], the clearance was 7.2 L/h/kg. The same compound showed a half-life in the data set “in vitro” of 5 h. For the same compound, the half-life at 1 µM in data set [4] was 9.8 h. Further, the bioavailability in data set [5] worked out at 28%. This compound also registered an AUC/dose in the data set with Rattus norvegicus [6] of 0.7 µM·h. Moreover, in data set [7], the Papp A→B at 10 µM turned out to be 15 nm/s. For the same compound, in data set [1], the logD at 1 h amounted to 0.97. Moreover, in [8], the Vd came out at 3.96 L/kg.
For `N#Cc1cccc(CN[C@H]2CC[C@H](n3cnc4cnc5[nH]ccc5c43)CC2)c1`, the half-life in the data set “in vitro” is 0.8 h.
Same read-out and setting: as for `CS(=O)(=O)N[C@H]1CC[C@H](n2cnc3cnc4[nH]ccc4c32)CC1`, the figure is 1.8 h; as for `COC(=O)N(C)[C@H]1CC[C@H](n2cnc3cnc4[nH]ccc4c32)CC1`, greater than 10 h; as for `CC(C)(C)OC(=O)N[C@@H]1CC[C@@H](n2cnc3cnc4[nH]ccc4c32)C1` (racemic), 5.5 h.
`COC(=O)N[C@@H]1CC[C@@H](n2cnc3cnc4[nH]ccc4c32)C1` (racemic): in the data set “in vitro”, the half-life is 5.8 h. The compound further returned a logD at 1 h in data set [1] of 1.2.
In the data set “in vitro”, `CC(C)(C)OC(=O)N[C@H]1CC[C@@H](n2cnc3cnc4[nH]ccc4c32)C1` (racemic) gave a half-life of 1.8 h.
